The source of these data is the NIST ThermoML archive (doi:10.1016/j.jct.2011.06.015).

± gives the expanded uncertainty stated by the source.

This data set can be described thus: Boiling temperature at pressure P. The following applies: 101.33 kPa; Liquid; Ebulliometric method (Recirculating still).
Turning to `CCc1ccccc1` [ethylbenzene], the “Boiling temperature at pressure P” value turned out to be 136.20 ± 0.05 °C.

In the case of `CC(C)c1ccccc1` [isopropylbenzene], the “Boiling temperature at pressure P” value worked out at 152.40 ± 0.05 °C.

With `O=S1(=O)CCCC1` [sulfolane], the “Boiling temperature at pressure P” value was 287.33 ± 0.05 °C.

Regarding `Cc1ccccc1` [toluene], the “Boiling temperature at pressure P” value worked out at 110.80 ± 0.05 °C.
